Measurements reported in BindingDB's records for doi:10.1021/jm030424e (Isis Pharmaceuticals, 2004).

Assay: Inhibition HCV RNA replication

Row | EC50 [µM] | SMILES
1 | > 50 | CO[C@@H]1[C@H](O)[C@@H](CO)O[C@H]1n1cnc2c(N)ncnc21
2 | > 50 | C[C@@]1(O)[C@@H](CO)O[C@@H](n2cnc3c(N)ncnc32)[C@@H]1O
3 | > 50 | Nc1nc2c(ncn2[C@@H]2O[C@H](CO)[C@H](O)[C@H]2O)c(=O)[nH]1
4 | > 50 | C[C@]1(O)[C@@H](CO)O[C@@H](n2cnc3c(N)ncnc32)[C@@H]1O
5 | > 50 | Nc1nc2c(ncn2[C@@H]2O[C@H](CO)[C@@H](O)[C@H]2F)c(=O)[nH]1 [2-Amino-9-((2R,3R,4R,5R)-3-fluoro-4-hydroxy-5-hydroxymethyl-tetrahydro-furan-2-yl)-1,9-dihydro-purin-6-one]
6 | > 50 | CO[C@@H]1[C@H](O)[C@@H](CO)O[C@H]1n1cnc2c(=O)[nH]c(N)nc21 [2-Amino-9-((2R,3R,4R,5R)-4-hydroxy-5-hydroxymethyl-3-methoxy-tetrahydro-furan-2-yl)-1,9-dihydro-purin-6-one]
7 | 50 | Nc1nc2c(ncn2[C@@H]2O[C@H](CO)C[C@H]2O)c(=O)[nH]1 [2-Amino-9-((2R,3R,5S)-3-hydroxy-5-hydroxymethyl-tetrahydro-furan-2-yl)-1,9-dihydro-purin-6-one]
8 | > 50 | Nc1nc2c(ncn2[C@@H]2O[C@H](CO)[C@@H](F)[C@H]2O)c(=O)[nH]1 [2-Amino-9-((2R,3S,4S,5R)-4-fluoro-3-hydroxy-5-hydroxymethyl-tetrahydro-furan-2-yl)-1,9-dihydro-purin-6-one]
9 | 7 | C[C@@]1(O)[C@H](O)[C@@H](CO)O[C@H]1n1cnc2c(N)nc(N)nc21 [(2R,3R,4R,5R)-2-(2,6-diamino-9H-purin-9-yl)-5-(hydroxymethyl)-3-methyloxolane-3,4-diol]
10 | > 50 | C[C@@]1(O)[C@H](O)[C@@H](CO)O[C@H]1n1cnc2cnc(N)nc21 [(2R,3R,4R,5R)-2-(2-amino-9H-purin-9-yl)-5-(hydroxymethyl)-3-methyloxolane-3,4-diol]
11 | > 50 | CC[C@@]1(O)[C@H](O)[C@@H](CO)O[C@H]1n1cnc2c(N)ncnc21 [(2R,3R,4R,5R)-2-(6-amino-9H-purin-9-yl)-3-ethyl-5-(hydroxymethyl)oxolane-3,4-diol]
12 | 0.3 | C[C@@]1(O)[C@H](O)[C@@H](CO)O[C@H]1n1cnc2c(N)ncnc21 [(2R,3R,4R,5R)-2-(6-amino-9H-purin-9-yl)-5-(hydroxymethyl)-3-methyl-tetrahydrofuran-3,4-diol]
13 | > 50 | C[C@@]1(O)[C@H](O)[C@@H](CO)O[C@H]1n1cnc2c(=O)[nH]cnc21 [(2R,3R,4R,5R)-2-(6-hydroxy-9H-purin-9-yl)-5-(hydroxymethyl)-3-methyloxolane-3,4-diol]
14 | > 50 | CO[C@]1(C)[C@H](O)[C@@H](CO)O[C@H]1n1cnc2c(N)ncnc21 [(2R,3R,4R,5R)-5-(6-amino-9H-purin-9-yl)-2-(hydroxymethyl)-4-methoxy-4-methyloxolan-3-ol]
15 | > 50 | C[C@@]1(O)[C@H](O)[C@@H](CO)O[C@H]1n1cnc2cncnc21 [(2R,3R,4R,5R)-5-(hydroxymethyl)-3-methyl-2-(9H-purin-9-yl)oxolane-3,4-diol]
16 | > 50 | C[C@]1(O)[C@H](O)[C@@H](CO)O[C@H]1n1cnc2c(N)ncnc21 [(2R,3S,4R,5R)-2-(6-amino-9H-purin-9-yl)-5-(hydroxymethyl)-3-methyloxolane-3,4-diol]
17 | > 50 | Nc1ncnc2c1ncn2[C@@H]1O[C@H](CO)[C@@H](O)[C@@H]1O [adenine arabinoside]
